Experimental data from patent publication US20050209278A1, “Piperidinyl- and piperazinyl-sulfonylmethyl hydroxamic acids and their use as protease inhibitors” (priority 2002, published 2005).
Where a name gives a salt, the structure may show the parent alone. Read-outs that look alike come from different tables or passages of the source.

Target: T1, MMP-2 (Homo sapiens, UniProt P08253)
T1 construct: made in house; host or cells: MMP-2-transfected p2AHT2 cells
T1 sequence (P08253 110-660): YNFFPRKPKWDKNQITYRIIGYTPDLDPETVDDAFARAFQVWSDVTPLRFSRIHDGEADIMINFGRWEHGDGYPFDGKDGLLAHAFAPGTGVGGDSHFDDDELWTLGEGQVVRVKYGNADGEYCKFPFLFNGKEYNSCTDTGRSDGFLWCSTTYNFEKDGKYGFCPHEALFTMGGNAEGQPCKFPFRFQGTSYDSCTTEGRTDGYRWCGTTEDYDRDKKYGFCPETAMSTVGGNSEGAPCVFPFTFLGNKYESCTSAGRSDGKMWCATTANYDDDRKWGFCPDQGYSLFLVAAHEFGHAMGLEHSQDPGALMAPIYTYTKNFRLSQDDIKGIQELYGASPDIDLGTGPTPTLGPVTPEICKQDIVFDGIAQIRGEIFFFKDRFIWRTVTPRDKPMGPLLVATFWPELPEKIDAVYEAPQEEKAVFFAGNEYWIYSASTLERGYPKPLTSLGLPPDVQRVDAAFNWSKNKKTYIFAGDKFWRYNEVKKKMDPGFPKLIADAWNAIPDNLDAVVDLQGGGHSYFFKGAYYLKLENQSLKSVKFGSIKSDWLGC
Assay: In vitro MMP inhibition, Ki determination (fluorogenic substrate II)
Assay type: biochemical
Conditions: read-out: MMP-2 Ki

[1] = human recombinant enzyme, 4 μM substrate II, room temperature, 1 hr

| SMILES | Ki (value not in parenthesis) [nM] | Ki [1] [nM] |
| --- | --- | --- |
| CCCCOc1ccc(N2CCN(S(=O)(=O)C3(C(=O)NO)CCN(C(=O)c4cc5ccccc5o4)CC3)CC2)cc1 [Example 127] | 6.02 |  |
| CCCCOc1ccc(N2CCN(S(=O)(=O)C3(C(=O)NO)CCN(C(=O)NCCOC)CC3)CC2)cc1 [Example 118] | 0.75 |  |
| O=C(NO)C1(S(=O)(=O)N2CCN(c3ccc(CCC(F)(F)C(F)(F)F)cc3)CC2)CCOCC1 [Example 17, N-hydroxy-4-({4-[4-(3,3,4,4,4-pentafluorobutyl)phenyl]piperazin-1-yl}sulfonyl)tetrahydro-2H-pyran-4-carboxamide Hydrochloride] |  | 0.418 |
| O=C(NO)C1(S(=O)(=O)N2CCN(c3ncc(Br)cn3)CC2)CCOCC1 [Example 104] | 4.73 |  |
| O=C(NO)C1(S(=O)(=O)N2CCN(c3ccc(OCCCC(F)(F)F)cc3F)CC2)CCOCC1 [Example 117] | 2.58 |  |
| CCCc1ccc(N2CCN(S(=O)(=O)C3(C(=O)NO)CCOCC3)CC2)nc1 [Example 136] | 0.142 |  |
| CCCCOc1ccc(N2CCN(S(=O)(=O)C3(C(=O)NO)CCN(C(=O)OCC(F)(F)F)CC3)CC2)cc1 [Example 115] | 1.48 |  |
| O=C(NO)C1(S(=O)(=O)N2CCN(c3ccc(SC(F)(F)F)cc3)CC2)CCN(Cc2ccccc2)CC1 [Example 152] | 0.871 |  |
| O=C(NO)C1(S(=O)(=O)N2CCC(c3cnc(OCC(F)(F)C(F)(F)F)cn3)CC2)CCOCC1 [Example 27] |  | 0.59 |
| O=C(NO)C1(S(=O)(=O)N2CCN(c3ccc(OCCCC(F)(F)F)cc3)CC2)CCN(c2cnccn2)CC1 [Example 112] | 0.69 |  |
| COc1ccc(N2CCN(S(=O)(=O)C3(C(=O)NO)CCOCC3)CC2)nc1 [Example 108] | 431 |  |
| CCCCOc1ccc(N2CCN(S(=O)(=O)C3(C(=O)NO)CCN(c4nc5ccccc5o4)CC3)CC2)cc1 [Example 150] | 4.25 |  |
